For the first experiment, the target named is 11βHSD-1 (Homo sapiens, UniProt P28845).
Chain of 11βHSD-1 (P28845 whole entry, species assumed): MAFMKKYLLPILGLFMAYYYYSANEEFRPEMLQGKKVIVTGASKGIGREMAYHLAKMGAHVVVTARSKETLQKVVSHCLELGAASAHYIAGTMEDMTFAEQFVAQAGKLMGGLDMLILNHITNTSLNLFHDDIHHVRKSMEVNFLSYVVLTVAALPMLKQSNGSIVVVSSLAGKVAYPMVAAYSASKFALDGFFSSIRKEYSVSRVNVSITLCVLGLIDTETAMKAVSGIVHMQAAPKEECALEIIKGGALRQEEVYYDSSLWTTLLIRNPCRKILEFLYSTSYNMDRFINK
Experiment: not given
To be noted: Table 1; @ 10 μM; cited from earlier work.
T1 sequence (P28845 24-287): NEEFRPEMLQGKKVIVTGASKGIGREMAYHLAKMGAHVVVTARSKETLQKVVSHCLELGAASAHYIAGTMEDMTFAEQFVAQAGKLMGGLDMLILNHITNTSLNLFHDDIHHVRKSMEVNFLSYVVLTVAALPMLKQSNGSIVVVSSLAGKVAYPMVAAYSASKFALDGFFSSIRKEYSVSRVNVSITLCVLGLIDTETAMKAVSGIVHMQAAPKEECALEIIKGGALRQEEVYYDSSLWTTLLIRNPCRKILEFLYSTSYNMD
Turning to `Cc1c(Cl)cccc1S(=O)(=O)Nc1ccc2c(c1)nc(C)n2C` [Example 505], the “% @ 10 μM” value is given as 110% @ 10.

The experiment is the same for the next values; noted with them: Table 1; Barf et al., Drugs of the Future 31(3), 231-243 (2006); read-out: IC50; cited from earlier work.
For the compound `O=C1CC(c2ccccc2)Oc2ccccc21` (stereo not shown) [Example 497], the concentration for half-maximal inhibition (IC50) was 18000 nM. For the compound `CCCC(=O)Cc1csc(NS(=O)(=O)c2cccc(Cl)c2C)n1` [Example 502], the IC50 is 14 nM. `CC(C)c1nsc(NS(=O)(=O)c2ccc(Oc3ccccc3)cc2)n1` [Example 503]: the concentration for half-maximal inhibition (IC50) is 219 nM. On to `COc1cc(-c2nnc(C34CC5CC(CC(C5)C3)C4)n2C)cc(OC)c1OC` [Example 507], for which the half-inhibitory concentration (IC50) is less than 10 nM. Turning to `CC(C)(C(=O)NC1C2CC3CC(C2)CC1C3)c1ccc(F)cc1` (stereo not shown) [Example 512], the IC50 is less than 1000 nM. In the case of `O=C(c1ccc(-c2ccccc2[N+](=O)[O-])o1)N1CC[C@@H]2CCCC[C@@H]2C1` [Example 514], the IC50 was 7.7 nM. In the case of `O=C(CS(=O)(=O)N1CCCC1)c1ccc(F)cc1` [Example 519], the IC50 is 94 nM.

As to `O=C(Cc1ccc(Cl)cc1)c1ccc(Br)cc1` [Example 520], the IC50 is 77 nM. Regarding `CC(=O)Nc1ccc(OCC(=O)c2ccc(Cl)cc2)cc1` [Example 521], the IC50 was 153 nM. For the compound `O=C(c1ccc(OC(F)(F)F)cc1)C1CCN(C(=O)c2ccc(F)cc2)CC1` [Example 523], the IC50 was 50 nM.

Staying with this experiment, now noted: Table 3; @ 39 nM; cited from earlier work.
On to `CC1(C2CC2)Cc2nnc(-c3ccccc3Cl)n2CCS1` (stereo not shown) [Example 534], for which the “% @ 39 nM” value is recorded as 71.8% @ 39.

Staying with this experiment, now noted: Table 3; Boyle et al., Expert Opin. Ther. Patents 19(6), 801-825 (2009); read-out: IC50; cited from earlier work.
For the compound `CC(CC(F)(F)F)c1nnc(C23CCC(c4nnc(-c5ccccc5C(F)(F)F)n4C)(CC2)CC3)o1` (stereo not shown) [Example 531], the IC50 is 9 to 100 nM. Turning to `CCOc1cc(NC(C)=O)ccc1-c1nnc(N(C)c2ccc(F)cc2)n1C` [Example 532], the IC50 is 3.4 nM.

On to `N#Cc1ccccc1CSc1nc(O)c(Cl)c2ccc(Cl)cc12` [Example 537], for which the IC50 was 2 nM.

As for `CCSc1nc(N2CCOC(C(=O)O)C2)ccc1C(=O)NC1C2CC3CC(C2)CC1C3` (stereo not shown) [Example 547], the IC50 is 6 nM. For `O=C(NC1C2CC3CC(C2)CC1C3)[C@H]1CCCN1S(=O)(=O)c1ccc(Cl)cc1` (stereo partly shown) [Example 548], the IC50 is less than 0.03 nM. With `O=C(NC1C2CC3CC1CC(O)(C3)C2)c1ccc(Oc2ccc(Cl)cn2)cc1` (stereo not shown) [Example 551], the IC50 was approximately 70 nM. As for `Cc1cc(Cl)ccc1OCCCC(=O)N(C)C1C2CC3CC(C2)C(CO)C1C3` (stereo not shown) [Example 555], the half-inhibitory concentration (IC50) was 1 nM. Turning to `CC1(C2CC2)CN(C2C3CC4CC2CC(O)(C4)C3)C(=O)N1C1CC1` (stereo not shown) [Example 557], the IC50 is 3 nM. Regarding `CN1C(=O)N(C2C3CC4CC(C3)CC2C4)C[C@@H]1C(C)(C)C` (stereo partly shown) [Example 558], the IC50 is less than 50 nM. Regarding `C[C@@H](c1ccc(Cl)cc1)N1CCN([C@H]2C3CC4CC2C[C@](O)(C4)C3)C1=O` [Example 559], the IC50 was 12 nM. In the case of `CC1(C)NC2(CCN(C(=O)NC3C4CC5CC(C4)CC3C5)CC2)c2c(Cl)cccc21` (stereo not shown) [Example 560], the IC50 is less than 50 nM. `O=C(c1ccc(-c2cc(Cl)c(C[C@@H]3CCN(C4CCCCC4)C3=O)c(Cl)c2)cc1)N1CCN(CCF)CC1` [Example 564]: the half-maximal inhibitory concentration (IC50) was 115 nM.

`O=C1[C@H](Cc2c(Cl)cc(-c3ccc(F)cc3)cc2Cl)CCN1C1CCc2n[nH]cc2C1` (stereo partly shown) [Example 570]: the IC50 was 276 nM. In the case of `O=C(c1ccc(-c2cc(Cl)c(CN3CCC(C4CCCCC4)C3=O)c(Cl)c2)cc1)N1CCN(CCF)CC1` (stereo not shown) [Example 572], the IC50 is 15.4 nM.

With `C[C@@H](c1ccc2ccccc2c1)N1CCN(Cc2ccccc2)C1=O` [Example 575], the IC50 is 2.9 nM.

On to `O=C(c1cnn(C2CCNCC2)c1C1CC1)N1CC[C@@H](c2ccccc2C(F)(F)F)C1` [Example 578], for which the IC50 was less than 30 nM.

As for `CC(=O)N1CCC2(CC(C3(c4ccc(Cl)cc4)CC3)=NO2)C1` (stereo not shown) [Example 579], the IC50 is less than 5000 nM. Turning to `O=C1OC2(CCN(C(=O)C(O)c3ccc(Br)cc3F)C2)c2ccccc21` (stereo not shown) [Example 580], the IC50 is less than 1000 nM.

`O=C1OC2(CCN(C(=O)Nc3ccc(Cl)cc3F)C2)c2ccccc21` (stereo not shown) [Example 581]: the IC50 was less than 20000 nM. In the case of `O=C(N1CCC(c2cn[nH]c2)CC1)N1CCOc2ccc(Cl)cc21` [Example 583], the IC50 was 39 nM.

As to `Cc1ccc(C(=O)N(C2CC2)[C@H]2CC[C@H](CCO)CC2)c(F)c1` [Example 594], the IC50 is 2 nM. Turning to `C[C@@H]1CN(c2ccc(C(N)(C(F)(F)F)C(F)(F)F)cc2)CCN1S(=O)(=O)c1ccc(C(C)(O)C(F)(F)F)cc1` (stereo partly shown) [Example 596], the IC50 is less than 10 nM. For the compound `Cc1ccc(S(=O)(=O)N2CCCN(c3c(Cl)cncc3Cl)CC2)cc1` [Example 597], the IC50 was 910 nM. As to `O=S(=O)(Cc1ccc(C(F)(F)F)cc1)N1CCN(c2ncccc2C(F)(F)F)CC1` [Example 598], the half-maximal inhibitory concentration (IC50) was 430 nM.

The experiment is the same for the next values; noted with them: Table 4; Webster et al., Expert Opin. Ther. Patents 17(12), 1407-1422 (2007); read-out: IC50; cited from earlier work.
`O=S(=O)(Nc1ccnc(C2CC2)n1)c1ccc2ccccc2c1` [Example 680]: the IC50 was 20 nM. In the case of `Cc1c(S(=O)(=O)Nc2nc(C34CC5CC(CC(C5)C3)C4)cs2)sc2ccc(Cl)cc12` [Example 681], the IC50 was 18 nM. As to `O=S(=O)(Nc1nc(C23CC4CC(CC(C4)C2)C3)cs1)c1cc2ccccc2s1` [Example 682], the IC50 was 42 nM.

Still in this experiment, the particulars now being: Table 4; Webster et al., Expert Opin. Ther. Patents 17(12), 1407-1422 (2007); read-out: Ki; cited from earlier work.
With `Cc1cc(N)nc(NS(=O)(=O)c2sc(-c3ccc(C#N)cc3)nc2C)c1` [Example 672], the Ki was 2.8 nM.

Take `CC(O)c1cccc(NS(=O)(=O)c2ccc(-c3ccc(C#N)cc3)cc2)n1` (stereo not shown) [Example 673]: the inhibition constant Ki was 1.8 nM.

Staying with this experiment, now noted: Table 5; Boyle, Current Opinion in Drug Discovery & Development 2008, 11(4), 495-511; cited from earlier work.
As to `O=C(c1cnoc1-c1ccc(F)cc1)N1CCC(c2ccccc2)C1` (stereo not shown) [Example 700], the IC50 is reported as 8 − 10,000 nM.

Staying with this experiment, now noted: Table 5; Boyle, Current Opinion in Drug Discovery & Development 2008, 11(4), 495-511; read-out: IC50; cited from earlier work.
Consider `CC1(C)CC2CC(C)(CN2C(=O)c2cc(Cl)c(N)c(Cl)c2)C1` (stereo not shown) [Example 693], for which the IC50 was 4 nM.

As for `CC1(C)CC2CC(C)(CN2C(=O)c2ccc(C(C)(C)O)cc2)C1` (stereo not shown) [Example 696], the IC50 is 7 nM. As for `COc1cc(C(=O)N2CCC(n3c(=O)[nH]c4ccccc43)CC2)ccc1C` [Example 698], the IC50 is 110 nM. Regarding `O=C(N[C@H]1CCCN(S(=O)(=O)c2ccc(F)c3ccccc23)C1)N1CCC(O)CC1` [Example 703], the 50% inhibitory concentration (IC50) was 13 nM. `O=S(=O)(Cc1ccc(C(F)(F)F)cc1)N1CCN(c2ncccc2C(F)(F)F)CC1` [Example 707]: the IC50 was 430 nM. As to `COc1ccc(S(=O)(=O)NCC(=O)c2ccc(C(C)(C)C)cc2)cc1` [Example 713], the concentration for half-maximal inhibition (IC50) was 82 nM.

The same experiment, now with this note: cited from earlier work.
Consider `C[C@H](CCC(=O)O)[C@H]1CC[C@H]2[C@@H]3[C@H](O)C[C@@H]4C[C@H](O)CC[C@]4(C)[C@H]3CC[C@]12C` [Example 490], for which the IC50 is 2800 nM. In the case of `Cc1c(Cl)cccc1S(=O)(=O)Nc1nc(CC(=O)N2CCN(C)CC2)cs1` [Example 500], the IC50 was 96 nM. Turning to `C[C@H](NC1=NC(=O)C(C)(C(F)(F)F)S1)c1ccccc1F` (stereo partly shown) [Example 527], the half-maximal inhibitory concentration (IC50) is 33 nM.

As to `Cc1cc(C)nc(NS(=O)(=O)N2CCN(c3ccc(C#N)cn3)CC2)c1` [Example 674], the Ki was 0.66 nM. For `C[C@](O)(c1ccc(C(=O)N(C2CCC(c3cccnc3)CC2)C2CC2)cc1)C(F)(F)F` (stereo partly shown) [Example 714], the IC50 is 1.4 nM.

The same experiment, now with this note: read-out: IC50; cited from earlier work.
As for `CC(C)[C@@H]1CC[C@@H](C)C[C@@H]1O` [Example 524], the IC50 was 35000 nM. On to `Cc1c(Cl)cccc1S(=O)(=O)N1CCC[C@H](C(=O)NC2CCCCC2)C1` [Example 600], for which the IC50 is 3 nM. Consider `O=C(N[C@H]1CCCN(S(=O)(=O)c2ccc(F)c3ccccc23)C1)N1C2CCC1CC(O)C2` (stereo partly shown) [Example 601], for which the IC50 was 3 nM.

The same experiment, now with this note: read-out: Ki; cited from earlier work.
Take `N#Cc1ccc(C2CCN(S(=O)(=O)Nc3cccc(N)n3)CC2)cc1` [Example 671]: the inhibition constant (Ki) was less than 1 nM.

A further experiment concerns the target T1, truncated human 11β-HSD-1 enzyme (24-287AA) (Homo sapiens, UniProt P28845).
T1 construct: truncated human 11β-HSD-1 enzyme (24-287AA); made in house; host or cells: E. coli (lysate)
Put plainly: Human 11β-HSD-1 enzymatic SPA assay. Conditions: human enzyme, SPA. The class given is biochemical. The method, then: The ability of test compounds to inhibit human 11β-HSD-1 enzymatic activity in vitro was evaluated in a Scintillation Proximity Assay (SPA). […] The reaction was stopped by adding a non-specific 11β-HSD inhibitor, 18β-glycyrrhetinic acid. The tritiated cortisol was captured by a mixture of an anti-cortisol monoclonal antibody and SPA beads coated with anti-mouse antibodies. The reaction plate was shaken at room temperature and the radioactivity bound to SPA beads was then measured on a β-scintillation counter. The 11β-HSD-1 assay was carried out in 96-well microtiter plates in a total volume of 220 μl. […] In order to drive the reaction in the forward direction, 1 mM G-6-P was also added. Solid compound was dissolved in DMSO to make a 10 mM stock followed by a subsequent 10-fold dilution with 3% DMSO in Tris/EDTA buffer (pH 7.4). 22 μl of titrated compounds was then added in triplicate to the substrate. Reactions were initiated by the addition of 10 μl of 0.1 mg/ml E. coli lysates overexpressing 11β-HSD-1 enzyme. After shaking and incubating plates for 30 minutes at room temperature, reactions were stopped by adding 10 μl of 1 mM glycyrrhetinic acid. The product, tritiated cortisol, was captured by adding 10 μl of 1 μM monoclonal anti-cortisol antibodies and 100 μl SPA beads coated with anti-mouse antibodies. After shaking for 30 minutes, plates were read on a liquid scintillation counter Topcount. Percent inhibition was calculated based on the background and the maximal signal. Wells that contained substrate without compound or enzyme were used as the background, while the wells that contained substrate and enzyme without any compound were considered as maximal signal. Percent of inhibition of each compound was calculated relative to the maximal signal and IC50 curves were generated. This assay was applied to 11β-HSD-2 as well, whereby tritiated cortisol and NAD^+ were used as substrate and cofactor, respectively.
Turning to `C[S+]([O-])[C@]12C[C@@H]3C[C@H](C1)[C@@H](NC(=O)C(C)(C)Oc1ccc(F)cc1Cl)[C@@H](C3)C2` (stereo partly shown) [2-(2-chloro-4-fluorophenoxy)-2-methyl-N-[(E)-5-(methylsulfinyl)-2-adamantyl]propanamide], the midpoint of inhibition, the IC50, lay at 28 nM.

(Values after patent US8871208B2, “11-β-hydroxysteroid dehydrogenase type 1 (11β-HSD1) inhibitors and uses thereof” (AbbVie Inc., priority 2009, dated 2014).)
